Assay results reported in US9758557B2, “C1q peptides and uses thereof” (THE FEINSTEIN INSTITUTE FOR MEDICAL RESEARCH, priority 2013, dated 2017).

Tests used:
[1] = system: R4A binding to dsDNA; test: DNA ELISA, inhibition of R4A binding to dsDNA by fluid phase C1q; details: immobilized dsDNA
Experimental: (§1) ELISAs—Costar half-volume 96-well plates (Corning, N.Y.) were used for C1q ELISAs and Immulon 2HB 96-well plates (Milford, Mass.) were used for DNA ELISAs. C1q was purchased from Comptech (Tyler, Tex.) and adsorbed to 96-well plate (50 μg/ml) Plates were blocked with 2% BSA in PBS for 1 hour at RT. R4A antibody or IgG2b control immunoglobulin (MPC-11 hybridoma, ATCC, Manassas, Va.) was added for 1 hour at RT at various concentrations of NaCl. Cytokine ELISA was performed according to manufacturer's protocol (BD Biosciences, San Diego, Calif.). C1q collagen-tail of C1q was prepared as described in [21].

[2] = system: R4A binding to C1q; test: ELISA, inhibition of R4A binding to C1q by peptide
Experimental: as §1

Row | inhibition of R4A binding to dsDNA [1] | inhibition of R4A binding to C1q [2] | Substance
1 | inhibited |  | C1q: human complement C1q, purchased from Comptech
2 |  | inhibited | DWEYS [reference compound]
3 |  | inhibited | EADYG (fusion protein)
